Measurements: patent US9586946B2, “Selective immunoproteasome inhibitors with non-peptide scaffolds” (University of Kentucky Research Foundation, priority 2015, dated 2017)
Where a SMILES comes first, the peptide text is derived from it.

How the values were obtained:
[1] = target: T1, 20S human immunoproteasome (CT-L activity) (Homo sapiens, UniProt P28062); assay: Inhibition of CT-L activity of the immunoproteasome (Suc-LLVY-AMC fluorogenic substrate); format: biochemical; settings: for inhibition of the CT-L activity of the immunoproteasome: 5 µM; for remaining activity at 5 µM: inhibitor at 5 μM, remaining enzyme activity, read-out: % IP activity (remaining activity of the enzyme); for IC50: unit inferred, read-out: IC50 values against the immunoproteasome
T1 construct: purchased Boston Biochem
Experimental: (§1) The computationally selected 13 compounds were tested for their inhibitory activity against the CT-L activity of the immunoproteasome. The identified active compounds were also tested for their inhibitory activity against the CT-L activity of the constitutive proteasome. For the initial activity screening, the selected compounds were dissolved in DMSO and used at a concentration of 5 μM. Epoxomicin ([…]), which reached the 100% inhibition, was used as a positive control. 20S human immunoproteasome and constitutive proteasome (Boston Biochem) were 2-fold diluted in an assay buffer (20 mM Tris/Cl, pH 8.0, 0.5 mM EDTA, 0.035% SDS).^17
(§2) Specifically, selected compounds were preincubated with 50 ng/well of the immunoproteasome or constitutive proteasome in a 96-well plate at room temperature for 13 min. 100 μM of Suc-LLVY-AMC, a fluorogenic peptide substrate for the CT-L activity, was then added to the wells. Fluorogenic signals of the free AMC (Ex: 360, Em: 460)^18 were recorded for 90 min. The initial reaction velocities (RFU/min) of each compound were calculated as a percentage of the positive control. All enzyme activity assays were carried out in triplicate.

[2] = target: T2, 20S human constitutive proteasome (CT-L activity) (Homo sapiens, UniProt P28074); assay: Inhibition of CT-L activity of the constitutive proteasome (Suc-LLVY-AMC fluorogenic substrate); format: biochemical; settings: inhibitor at 5 μM; remaining enzyme activity; read-out: % CP activity (remaining activity of the enzyme)
T2 construct: purchased Boston Biochem
Experimental: as §1, §2

SMILES | inhibition of the CT-L activity of the immunoproteasome ([1]; compound at 5 μM, % inhibition) [%] | remaining activity at 5 µM [1] [%] | IC50 [1] [µM] | remaining activity at 5 µM [2] [%] | inhibition at 5 µM ([1]; compound at 5 μM, % inhibition) [%] | inhibition by positive control ([1]; Epoxomicin at 1 tM (so in the source), positive control) [%]
CCC[C@H]1C[C@H](C(=O)N[C@@H]([C@@H]2O[C@H](SC)[C@@H](O)[C@@H](O)[C@@H]2O)[C@@H](C)O)[N@@H+](C)C1 [Compound 2] | – | 64 | 22 | 98 | 36 to 85 | –
N=C(N)NCCC[C@@H]1NC(=O)[C@H](Cc2ccccc2)NC(=O)[C@@H](Cc2ccc(O)cc2)NC(=O)CNC(=O)[C@@H](Cc2c[nH]c3ccccc23)NC1=O [Compound 5] (HELM PEPTIDE1{F.R.[dW].G.[dY]}$PEPTIDE1,PEPTIDE1,1:R1-5:R2$$$V2.0) | – | 81 | – | 82 | – | –
CC[C@H](C(=O)C(=O)NCCCN1CCOCC1)N1CC(C)C[C@@H](NC(=O)OCc2ccccc2)C1=O (stereo partly drawn) [Compound 6] | – | 86 | – | 94 | – | –
CCOc1ccc2[nH]c3c(c2c1)CC(C(=O)NCC1CCCCC1)N[C@@H]3c1ccc(O)c([N+](=O)[O-])c1 (stereo partly drawn) [Compound 8] | – | 90 | – | 106 | – | –
O=C(C[C@@H]1CCN(CC2CC2)C[C@@H]1[C@H]1CC(c2ccccc2Cl)=NO1)NCCc1ccccn1 [Compound 9] | – | 87 | – | 86 | – | –
CCN1CCN(CCCN2C(=O)C3[C@H](C(=O)Nc4cc(C)cc(C)c4)[C@@H]4C=C[C@]3(O4)[C@H]2C(=O)N[C@@H]2CCC[C@H](C)[C@H]2C)CC1 (stereo partly drawn) [Compound 10] | – | 82 | – | 85 | – | –
CC[C@@H](O)CNC(=O)C[C@@H]1CCN(Cc2ccc(C)s2)C[C@@H]1[C@H]1CC(c2ccccc2OC)=NO1 [Compound 12] | – | 69 | – | 72 | – | –
CC[C@H](C)[C@H](NC(=O)[C@H]([C@@H](C)CC)N(C)C(C)=O)C(=O)N[C@H](C(=O)N[C@@H](CC(C)C)C(=O)[C@@]1(C)CO1)[C@@H](C)O [Epoxomicin, reference compound] | – | – | – | – | – | 100

Continued, in another order:

inhibition of the CT-L activity of the immunoproteasome ([1]; compound at 5 μM, % inhibition) [%] | remaining activity at 5 µM [1] [%] | IC50 [1] [µM] | remaining activity at 5 µM [2] [%] | inhibition at 5 µM ([1]; compound at 5 μM, % inhibition) [%] | SMILES | inhibition by positive control ([1]; Epoxomicin at 1 tM (so in the source), positive control) [%]
85 | 15 | 1.7 | 80 | – | Cc1ccc(-c2cc(C(=O)NC[C@@H]3CCCO3)c3cc(CNS(=O)(=O)c4cccc(Cl)c4)ccc3n2)o1 [Compound 1] | –
62 | 38 | 4.9 | 85 | – | Cc1ccc(CSC[C@@H](NC(=O)c2cc(-c3ccccc3)nc3ccccc23)C(=O)NCCCN2CCCC2=O)cc1 [Compound 3] | –
– | 79 | – | 98 | – | CCCCc1ccc2nc(-c3ccc(OC)cc3)cc(C(=O)NC[C@@H](C)C(=O)N3CCC[C@@H]3CO)c2c1 [Compound 4] | –
– | 65 | – | 76 | – | NC(=O)CC[C@H](NC(=O)[C@H](Cc1cnc[nH]1)NC(=O)OCC1c2ccccc2-c2ccccc21)C(=O)N1CCC[C@H]1C(=O)O [Compound 7] (HELM PEPTIDE1{[O=C(OCC1c2ccccc2-c2ccccc21)[*:2]].H.Q.P}$$$$V2.0) | –
– | 80 | – | 80 | – | COc1ccc(-c2cc(C(=O)N[C@H](CCC(=O)OC3CCCCC3)C(=O)NCCc3ccncc3)c3ccccc3n2)cc1C [Compound 11] | –
– | 91 | – | 88 | – | COc1ccccc1C(=O)N/C(=C/c1ccc(Br)cc1)C(=O)Nc1ccc(S(=O)(=O)/N=c2\[nH]ccs2)cc1 [Compound 13] | –
– | 70 | – | 76 | – | CCN(CC)CCNC(=O)[C@H](Cc1ccc(OCc2ccccc2)cc1)NC(=O)CCC(=O)c1ccccc1 [Compound 14] | –
– | 74 | – | 80 | – | O=C(CC[C@H](NC(=O)c1cc(-c2ccoc2)nc2ccccc12)C(=O)NCc1cc(F)ccc1F)OC1CCCCC1 [Compound 15] | –
– | 42 | – | 50 | – | Cc1ccc(OS(=O)(=O)c2cccc(C(F)(F)F)c2)c(-c2cc(-c3ccccc3)n(CCN[C@@H]3CCNC3)n2)c1 [Compound 16] | –
– | 42 | – | 41 | – | C=C(CCCc1ccccc1)N[C@@H](Cc1ccc(Cl)cc1)C(=O)N[C@H](Cc1ccccc1)C(=O)N[C@H](CCCNC(=N)N)C(=O)N[C@@H](Cc1c[nH]c2ccccc12)C(N)=O [Compound 17] | –
– | 75 | – | 84 | – | O=C1CN(/N=C/c2ccc(-c3ccc(Cl)cc3)o2)C(=O)N1CCCCN1CCN(C[C@@H](O)c2ccccc2)CC1 [Compound 18] | –
– | 69 | – | 67 | – | Cc1cccc(Nc2ccccc2C(=O)N[C@H](CC[S@+](C)[O-])C(=O)N[C@H](C)c2ccc(F)cc2)c1C [Compound 19] | –
